Series [1] can be described thus: Changes of blood triglyceride and blood cholesterol by HG. The class given is in vivo, mice. Particulars: blood. As for the experimental part: (§1) To analyze in vivo anti-obesity efficacy of HG, animal models of obesity were prepared. 8-week-old male C57BL/6N mice (SPF grade, 20±2 g, Orient Bio) were set into 7 groups as follows, and 10 mice per each group were tested: as normal control groups, normal mice (con) with no high fat diet and no administration, and obese mice (HFD) with induction of obesity by 30% high fat diet and no administration, and as a positive control group, obese mice with oral administration of orlistat which is an anti-obesity agent. As experimental groups, obese mice with oral administration of HG of 20 mg/kg, 40 mg/kg, or 80 mg/kg, and normal mice with oral administration of HG of 80 mg/kg were used. Mice were administered with HG at the same time with induction of obesity, and HG was administered for 5 days per week for 12 weeks. A dark: light cycle was maintained at intervals of 12 hours: 12 hours, and mice were allowed to free access to water. To analyze the effects of HG on blood triglyceride and blood cholesterol, a hematological-biochemical test was performed using a biochemical analyzer (AU480 Chemistry Analyzer, Beckman coulter, Calif., USA).

The nature of series [2]: Effects of HG on liver and kidney (serum GOT, GPT, BUN). Format: in vivo, mice. As for the experimental part:
as §1, with “examine whether” for “analyze the effects of”, “induced liver and kidney damage, glutamic oxalacetic transaminase (GOT), glutamic pyruvate transaminase (GPT),” for “on blood triglyceride”, “urea nitrogen (BUN) were measured by serum analysis” for “cholesterol, a hematological-biochemical test was performed”

Series [3] is described as follows: Body weight- and fat-reducing effects of HG in obese mice. The class given is in vivo. The conditions noted are these: obese mice (HFD); for changes in the body weight: oral administration at the same time with induction of obesity, 5 days per week for 12 weeks, FIG. 13; for body fat (dual-energy X-ray absorptiometry, fat weight): oral administration, 12 weeks, FIGS. 14 and 15. The procedure: as §1, with “An experiment” for “To analyze the effects of HG on blood triglyceride and blood cholesterol, a hematological-biochemical test”, “performed to analyze whether the body weight and fat of mice decreased when HG was administered. […] In addition, images of a fat distribution and body fat contents of mice of each experimental group were measured by dual-energy X-ray absorptiometry in the last week of the animal test. Each mice was sacrificed, and a visceral adipose tissue including epididymal fat was separated and a fat was weighed. The experimental results were tested for a significant difference between groups” for “performed”, “t-test in the Sigma plot statistical program (p#<0.05 vs normal control, p*<0.05, r<0.01, P***<0.001 vs obese group). As a result, it was confirmed that body fat was decreased in the positive control group and the HG-administered group (FIGS. 14 and 15).” for “biochemical analyzer (AU480 Chemistry Analyzer, Beckman coulter, Calif., USA).”

The next series has as its system white adipocytes. The series is described as follows: Adipocyte size-reducing effects of HG. Particulars: epididymal fat, HG administered; FIG. 16. Format: in vivo, mice. As for the experimental part:
as §1, with “water.” for “water. To analyze the effects of HG on blood triglyceride and blood cholesterol, a hematological-biochemical test was performed using a biochemical analyzer (AU480 Chemistry Analyzer, Beckman coulter, Calif., USA).”
For histological analysis, the epididymal fat tissues of mice were fixed in 4% paraformalin. Dehydration was performed several times through graded alcohol series and washing, and each tissue was embedded in paraffin. Each tissue section was cut at a thickness of 4 μm, and stained with hematoxylin and eosin. In order to examine the size of white adipocytes, the adipocyte area of each section was measured with cellSence software (Olympus Co., USA). […]

In series [4] the test system is mammalian target of rapamycin (mTOR). The experiment in a line: Western blotting of p-mTOR in adipocytes. Format: cell-based. The conditions noted are these: 3T3-L1 differentiated for 10 days, hydrangenol 2.5 ug/ml, 24 hours, FIG. 3. The procedure: The mechanism of reducing triglyceride in adipocytes was examined for the hydrangenol-containing hydrangea (Hydrangea serrata) and hydrangenol. A pre-adipocyte 3T3-L1 was differentiated for 10 days and treated with hydrangea (Hydrangea serrata) (25 ug/ml) and hydrangenol (2.5 ug/ml) for 24 hours, respectively. Thereafter, the cells were lysed using a modified LIPA buffer, and each 20 ug thereof was used for analysis. p-mTOR(ab109268, Abcam), p-FOXO1(9461S, Cell Signaling), PPARγ(sc-7273, Santa Cruz), and β-actin(A5316, Sigma) primary antibodies were used for analysis, respectively.
For orientation: In western blotting, separated proteins are transferred to a membrane and probed.

The mark [5] stands for this setting: obese mice (HFD) + oral orlistat.
[6] abbreviates: serum, obese mice (HFD) + oral orlistat.
Setting [7] is: HG-administered group, Table 4 and FIG. 17.
The mark [8] stands for this setting: obese mice (HFD) + HG 20 mg/kg oral, 12 weeks.
Where [9] appears, read: obese mice (HFD) + HG 40 mg/kg oral, 12 weeks.
Setting [10] is: obese mice (HFD) + HG 80 mg/kg oral, 12 weeks.

In the case of `CCCCCCCCCCC[C@@H](C[C@@H]1OC(=O)[C@H]1CCCCCC)OC(=O)[C@H](CC(C)C)NC=O` [Orlistat, orlistat], in series [1] (setting [5]), the CHOL amounted to 115.63 mg/dL, the HDL was 83.70 mg/dL, the LDL is 8.60 mg/dL and the TG was determined as 76.40 mg/dL. Besides, in series [2] (setting [6]), the BUN was 19.89 mg/dL, the GOT turned out to be 63 U/L and the GPT is 17.6 U/L. Moreover, in series [3], the “changes in the body weight” value is “body weight-reducing effects were observed” and the “body fat (dual-energy X-ray absorptiometry, fat weight)” value is “decreased”.

Consider `O=C1OC(c2ccc(O)cc2)Cc2cccc(O)c21` (stereo not shown) [HG, 8-hydroxy-3-(4-hydroxyphenyl)-3,4-dihydroisochromen-1-one], for which, in series [1] (HG-administered group, Table 4), the HDL level result was “no significant difference” and the triglyceride level result is on record as “no significant difference”. In series [1] (setting [7]), the LDL entry is reported as “reduction” and the total cholesterol entry is “reduction”. Also, in series [1] (normal mice + HG 80 mg/kg oral), the CHOL was 96.20 mg/dL, the HDL is 66.40 mg/dL, the LDL worked out at 5.70 mg/dL and the TG worked out at 80.10 mg/dL. Moreover, in series [1] (setting [8]), the CHOL is 126.78 mg/dL, the HDL amounted to 80.78 mg/dL, the LDL came out at 7.78 mg/dL and the TG is 74.63 mg/dL. Also, in series [1] (setting [9]), the CHOL turned out to be 112.56 mg/dL, the HDL turned out to be 71.89 mg/dL, the LDL is 7.38 mg/dL and the TG is 58.89 mg/dL. Moreover, in series [1] (setting [10]), the CHOL worked out at 110.14 mg/dL, the HDL stood at 71.20 mg/dL, the LDL came to 7.13 mg/dL and the TG turned out to be 63.78 mg/dL. The “GOT, GPT and BUN, difference between 7 groups” value in series [2] (mouse, in vivo) is “no significant difference”. The adipocyte size result in the series on white adipocytes was “reduced”. In addition, in series [4], the “phosphorylation of mammalian target of rapamycin (mTOR)” value is reported as “reduce”. For the same compound, in series [3], the “changes in the body weight” value is recorded as “body weight-reducing effects were observed” and the “body fat (dual-energy X-ray absorptiometry, fat weight)” value is “decreased”.

The values are drawn from patent US20210228463A1, “COMPOSITION FOR FAT FORMATION INHIBITION AND BODY FAT REDUCTION, CONTAINING HYDRANGENOL AS ACTIVE INGREDIENT” (COSMAX BIO CO., LTD., priority 2019, published 2021).
